Results: US20150057316A1, “NOVEL SULFONATE-BASED TRIMEBUTINE SALTS” (GICARE PHARMA INC., priority 2012, published 2015)

Test system: colorectal distension induced pain
Assay: electromyographic colorectal distension (CRD) induced pain model
Assay type: in vivo, mice
Settings: for VMR response to colorectal distension compared to the control group: mice, 30 and 60 mg/kg oral
Excerpt: The purpose was to evaluate the antinociceptive effects of Example 20 in an electromyographic colorectal distension (CRD) induced pain model. This model is recognized by experts in the field to be less subjective than the rat Abdominal Withdrawal Response (AWR) colorectal distension model, and has been used to assess the analgesic and sedative properties of several new compounds, including IBS drugs Zhuo, M; Gebhart, G. F. Facilitation and attenuation of a visceral nociceptive reflex from the rostroventral medulla in the rat. Gastroenterology, 2002, 122 1007-1019; Larsson, M. H.; Rapp, L.; Lindström, E. Effect of DSS-induced colitis on visceral sensitivity to colorectal distension in mice. Neurogastroenterology & Motility, 2006, 18, 144-152; Arvidsson, S.; Larsson, M.; Larsson, H.; Lindström, E.; Martinez, V. J. Pain, 2006, 7, 108-118; Jones, R. C. W.; Gebhart, G. F. Models of Visceral Pain: Colorectal Distension (CRD). Currrent Protocols in Pharmacology, 2004, 5.36, DOI: 10.1002/0471141755.ph0536s25.]
Three groups of 10 male mice (C57Bl6) were used: 2 groups received treatments with […] and one group received their vehicle […].
The groups were divided as follows: • i. 2 groups of 10 mice received an oral administration of Example 20 at two doses, 30 and 60 mg/kg. • ii. 1 group of 10 mice received an oral administration of the vehicle (PEG 200) use to administer Example 20.
All groups were implanted with electrodes in the abdominal external oblique musculature under anaesthesia. The surgery for electrode implantation was performed 5 days before the day of the experiment. The day of the experiment, colorectal distension (CRD) was performed in all animals, by inserting a balloon (10-mm long) into the colon, at 5 mm from the anus. The balloon was inflated with warm water, in a stepwise manner, from 0 to 60 mm Hg, with 15 mm Hg increments. […] At various times after these treatments: 2, 4 and 6-hours, the same series of stepwise CRD were performed and electromyographic responses (VMR in millivolts/sec) were recorded.

CCC(COC(=O)c1cc(OC)c(OC)c(OC)c1)(c1ccccc1)N(C)C.NC(=S)c1cccc(S(=O)(=O)O)c1 (stereo not drawn) [Example 20]
antinociceptive effects on colorectal distension induced pain (VMR mouse model, overall conclusion): significant antinociceptive effects | VMR response to colorectal distension compared to the control group (after 2 and 4 hours): overall reduction of the VMR response | VMR response to colorectal distension compared to the control group (at 6 hours, not statistically different from control): trend toward efficacy
